In patent US12246009B2, “Compositions and methods for treating neurodegenerative, myodegenerative, and lysosomal storage disorders” (GEORGETOWN UNIVERSITY, priority 2018, dated 2025):
“Also recorded” adds a separate entry of the source.

Tested on: α-synuclein
Experiment: α-synuclein ELISA in α-synuclein-transfected B35 cells
Type: cell-based, rat
Method: Rat neuroblastoma B35 cells were grown in Dulbecco's Modified Eagle's Medium (DMEM) with 10% Fetal Bovine Serum (FBS) and 1% penicillin/streptomycin and incubated at 37° C. with 5% CO2. For the experiments, cells were transferred to 12-well plates (Cat. #150628, ThermoFisher, Waltham, MA) and grown to at least 70% confluence. Transient transfection was performed with 3 μg P301 L tau (Cat. #30145, Addgene) cDNA or 3 μg human α-synuclein cDNA using Fugene HD transfection reagent (Cat. #E2311, Promega, Madison WI) for 24 hours. Cells were treated with 1 mM, 100 μM, 10 μM, 1 μM, 0.1 μM, 0.01 μM, and 0.001 μM dissolved in DMSO or an equivalent 5 ul of DMSO for 5 hours. Cell culture media was collected and cells were harvested using sodium-tris, EDTA, NP-40 (STEN) buffer and centrifuged at 10,000×g for 20 minutes at 4′C and supernatant was collected. Cell viability was determined via lactate dehydrogenase assay (Cat. #88954, Thermofisher) and MTT assay (Cat. #V13154, Thermofisher). Protein was extracted by removing culture medium and adding 0.2 ml 1× STEN buffer (50 mM. Tris (pH 7.6), 150 mM NaCl, 2 mM EDTA, 0.2% NP-40, 0.2% BSA, 20 mM. PMSF and protease cocktail inhibitor) to cell layer and incubated on ice for 10 minutes. The bottom of the well was scraped and allowed to incubate on ice for an additional 10 minutes. Cell lysates were collected, stored at −80° C., and used for additional analyses.
To perform transient transfection of α-synuclein into the rat neuroblastoma B35 cells FuGene® HD Transfection Reagent (Promega Corporation, Madison, WI) was used. Cells were grown in 12-well dishes. […]
Human α-synuclein and p-tau ELISA were performed using 50 μl (1 μg/4 μl) of cell lysates detected with 50 μl primary antibody (3 h) and 100 μl anti-rabbit secondary antibody (30 min) at RT. α-Synuclein levels were measured using human specific ELISA (Invitrogen Inc., Carlsbad, CA) according to manufacturer's protocols. Tau was measured using specific tau at serine 396 according to manufacturer's protocol. […]

Row | Compound | level of alpha-synuclein (transfected B35 cells, 1 mM and 100 uM) | α-synuclein level (α-synuclein-transfected B35 cells, 24 hour transfection)
1 | Cc1cccc(-c2cc3nccc(Nc4cccc(O)c4)c3s2)c1 [BK40196] | significantly reduced | 
2 | Cc1cccc(-c2cc3nccc(N4CCOCC4)c3s2)c1 [BK40197, 4-(2-(m-Tolyl)thieno[3,2-b]pyridin-7-yl)morpholine] |  | does not reduce alpha-synuclein; also recorded: does not significantly reduce
